One assay addresses T1, YAP-TEAD interaction (full length human TEAD1-Gal4 fusion, full length YAP mutant S127A, S397A) (UniProt P04386+P28347).
T1 construct: The TEAD1 construct was prepared by cloning the full length human TEAD1 cDNA; expressed in transfected cells; host or cells: HEK293 GripTite 293 MSR (Invitrogen R795-07), transiently transfected with pSG5_CMV plasmids
The assay can be described thus: Cell-based TEAD-GAL4 transactivation assay (luciferase reporter, HEK293). The following applies: HEK293 cells, compounds 0.1 μM to 30 μM, 24 h, concentration that inhibited the luciferase activity by 50%. The procedure: To identify inhibitors of YAP-TEAD interaction, a transient transactivation assays was carried out into HEK293 cell line (HEK293 GripTite™ 293 MSR (Invitrogen R795-07)) using plasmids containing the full length TEAD1 sequences, the full length YAP mutant (S127A, S397A) and a luciferase gene reporter. All expression constructs were performed into pSG5 backbone plasmid in which the SV40 promoter was replaced by the CMV promoter. The TEAD1 construct was prepared by cloning the full length human TEAD1 cDNA in fusion with the Gal4 DNA Binding Domain (AA 1-148) into pSG5_CMV to create the TEAD1(FL)_hum_pSG5Gal4_CMV. The full length YAP mutant (S127A, S397A) was also cloned into pSG_5 CMV to create the YAP(FL)_hum_pSG5_[…]. The reporter plasmid GAL4(5×RE)_[…]_pGL3-Basic contains 5 copies of the GAL4 responsive element (5′-TCGGAGGACAGTACTCC-3′) upstream of the thymidine kinase (TK) promoter (−105/+56) inserted in a pGL3-Basic vector. To evaluate the selectivity of our compounds in blocking the YAP-TEAD interaction, a counter-screening protein-protein interaction transactivation assays was also established. Briefly, two other expression plasmids, the pBD-P53 which express the P53 (AA 72-390) in fusion with Gal4 and the pAD-SV40T which express the SV40 large T antigen (AA 84-708,AgT), were created. HEK293 cells were seeded at 5×10^4 cells/well in 96 well plates (assay plates) in DMEM medium containing 4.5 g/L D-glucose, 10% high inactivated (HI) fetal bovine serum 1% Glutamax, 1% non-essential amino acid and 1% sodium pyruvate and 0.5% penicillin/streptomycin 37° C. in a humidified atmosphere of 8% CO2. After 24 h, transfections are performed using Jet-PEI as transfectant (101B-010 Polyplus Transfection), according to the instructions of the manufacturer (N/P=10) and a ratio YAP/TEAD=10 (per well: 50 ng of YAP(FL), 5 ng of TEAD(FL) and 50 ng of reporter plasmid). Six hours after cell transfection, the plates (‘assay plate’) were washed with 100 μl PBS per well and cell were treated with compounds in semi-log from 0.1 μM to 30 μM or DMSO 0.5% as control in DMEM 4.5 g/L D-Glucose without phenol red, 0.3% BSA, 1% glutamax, 1% NEAA, 1% sodium pyruvate. Twenty-four hours later, the luciferase activity was determined after addition of 100 μl of Steady Glo™ luciferase assay system (Promega E2550) according to the manufacturer's directions. Luciferase activity in cell extracts is measured by reading luminescence using the Envision device.
The cellular response was determined by fitting the concentration response curves using a 3-parameter curve fit equation and determining the concentration that inhibited the luciferase activity by 50%.
For orientation: A reporter such as luciferase makes a cellular process visible.
T1 sequence (P04386+P28347 fused, stated change not applied): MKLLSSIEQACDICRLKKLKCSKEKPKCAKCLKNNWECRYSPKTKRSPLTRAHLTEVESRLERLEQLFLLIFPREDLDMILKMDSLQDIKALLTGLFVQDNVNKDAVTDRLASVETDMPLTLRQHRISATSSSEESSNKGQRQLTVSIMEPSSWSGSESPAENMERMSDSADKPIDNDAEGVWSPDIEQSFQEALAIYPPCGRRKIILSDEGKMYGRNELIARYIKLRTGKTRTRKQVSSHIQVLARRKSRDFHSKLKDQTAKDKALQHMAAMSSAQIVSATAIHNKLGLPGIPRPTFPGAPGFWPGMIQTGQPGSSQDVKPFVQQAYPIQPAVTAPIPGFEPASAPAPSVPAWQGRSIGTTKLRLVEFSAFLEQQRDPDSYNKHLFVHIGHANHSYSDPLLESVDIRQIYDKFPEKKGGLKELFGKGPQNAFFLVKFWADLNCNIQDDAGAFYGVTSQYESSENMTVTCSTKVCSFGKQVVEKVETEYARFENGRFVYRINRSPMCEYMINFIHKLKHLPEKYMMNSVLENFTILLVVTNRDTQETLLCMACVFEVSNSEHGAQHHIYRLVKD
By IC50 is commonly meant the midpoint of a concentration-inhibition curve. A high value points to weaker potency in that assay. The compound `CCCOc1cc(/C=N/N(C)C2=NS(=O)(=O)c3ccccc32)ccc1F` [Ex 12, N-[(E)-(4-fluoro-3-propoxy-phenyl)methyleneamino]-N-methyl-1,1-dioxo-1,2-benzothiazol-3-amine] displayed an IC50 of 1.56 µM.

In the case of `COc1cc(/C=N/N(CC(C)C)C2=NS(=O)(=O)c3cc(OCB(O)O)ccc32)ccc1F` [Ex 92, [3-[[(E)-(4-fluoro-3-methoxy-phenyl)methyleneamino]-isobutyl-amino]-1,1-dioxo-1,2-benzothiazol-6-yl]oxymethylboronic acid], the half-maximal inhibitory concentration (IC50) stood at 0.86 µM.

For the compound `CN(/N=C/c1cccc(OCCO)c1)C1=NS(=O)(=O)c2ccccc21` [Ex 2, 2-[3-[(E)-[(1,1-dioxo-1,2-benzothiazol-3-yl)-methyl-hydrazono]methyl]phenoxy]ethanol], the midpoint of inhibition, the IC50, lay at 1.11 µM.

As for `CCOc1cc(/C=N/N(C)C2=NS(=O)(=O)c3ccccc32)ccc1F` [Ex 11, N-[(E)-(3-ethoxy-4-fluoro-phenyl)methyleneamino]-N-methyl-1,1-dioxo-1,2-benzothiazol-3-amine], the IC50 is 2.85 µM.

For the compound “3,3-diethyl-5-[(E)-[isobutyl-(5-methoxy-1,1-dioxo-1,2-benzothiazol-3-yl)hydrazono]methyl]indolin-2-one [Ex 101]”, inhibition was half-maximal at 5.29 µM (IC50).

In the case of `CNC(=O)COc1ccc2c(c1)C(N(CC(C)C)/N=C/c1ccc(F)c(OC)c1)=NS2(=O)=O` [Ex 105, 2-[[3-[[(E)-(4-fluoro-3-methoxy-phenyl)methyleneamino]-isobutyl-amino]-1,1-dioxo-1,2-benzothiazol-5-yl]oxy]-N-methyl-acetamide], half-maximal inhibition (IC50) was put at 4.94 µM.

As for `COc1cc(C2=NN(C3=NS(=O)(=O)c4cc(B(O)O)ccc43)C(C)CC2)ccc1F` (stereo not drawn) [Ex 109, [3-[6-(4-fluoro-3-methoxy-phenyl)-3-methyl-4,5-dihydro-3H-pyridazin-2-yl]-1,1-dioxo-1,2-benzothiazol-6-yl]boronic acid], half-maximal inhibition (IC50) required 0.7 µM.

`COc1cc(/C=N/N(CCc2ccccn2)C2=NS(=O)(=O)c3ccccc32)ccc1F` [Ex 9, N-[(E)-(4-fluoro-3-methoxy-phenyl)methyleneamino]-1,1-dioxo-N-[2-(2-pyridyl)ethyl]-1,2-benzothiazol-3-amine] registered an IC50 of 3.94 µM.

`COc1cc(/C=N/N(C)C2=NS(=O)(=O)c3ccc(OCCN(C)C)cc32)ccc1F` [Ex 57, 5-[2-(dimethylamino)ethoxy]-N-[(E)-(4-fluoro-3-methoxy-phenyl)methyleneamino]-N-methyl-1,1-dioxo-1,2-benzothiazol-3-amine] showed a concentration for half-maximal inhibition (IC50) of 0.53 µM.

`CCC1(CC)C(=O)Nc2ccc(/C=N/N(CC(C)C)C3=NS(=O)(=O)c4cc(O)ccc43)cc21` [Ex 96, 3,3-diethyl-5-[(E)-[(6-hydroxy-1,1-dioxo-1,2-benzothiazol-3-yl)-isobutyl-hydrazono]methyl]indolin-2-one] came in with an IC50 of 10.4 µM.

As for `CCOCCN(/N=C/c1ccc(F)c(OC)c1)C1=NS(=O)(=O)c2ccccc21` [Ex 43, N-(2-ethoxyethyl)-N-[(E)-(4-fluoro-3-methoxy-phenyl)methyleneamino]-1,1-dioxo-1,2-benzothiazol-3-amine], the IC50 was 2.78 µM.

Turning to `COc1cc(/C=N/N(CC(C)C)C2=NS(=O)(=O)c3ccc(B(O)O)cc32)ccc1F` [Ex 94, [3-[[(E)-(4-fluoro-3-methoxy-phenyl)methyleneamino]-isobutyl-amino]-1,1-dioxo-1,2-benzothiazol-5-yl]boronic acid], inhibition was half-maximal at 3.31 µM (IC50).

Compound `CN(/N=C/c1cccc(N(C)C)c1)C1=NS(=O)(=O)c2ccccc21` [Ex 4, N-[(E)-[3-(dimethylamino)phenyl]methyleneamino]-N-methyl-1,1-dioxo-1,2-benzothiazol-3-amine] yielded an IC50 of 11.9 µM.

In turn, `CN(/N=C/c1ccc2c(c1)n(C1CCC1)c(=O)n2COC(=O)C(C)(C)C)C1=NS(=O)(=O)c2ccccc21` [Ex 113, [3-cyclobutyl-5-[(E)-[(1,1-dioxo-1,2-benzothiazol-3-yl)-methyl-hydrazono]methyl]-2-oxo-benzimidazol-1-yl]methyl 2,2-dimethylpropanoate] yielded an IC50 of 4 µM.

On to `COc1cc(/C=N/N(C)C2=NS(=O)(=O)c3ccc(OCC(=O)N(C)C)cc32)ccc1F` [Ex 58, 2-[[3-[[(E)-(4-fluoro-3-methoxy-phenyl)methyleneamino]-methyl-amino]-1,1-dioxo-1,2-benzothiazol-5-yl]oxy]-N,N-dimethyl-acetamide], for which the IC50 is 3.42 µM.

`CN(/N=C/c1cnc(N2CCCC2)s1)C1=NS(=O)(=O)c2ccccc21` [Ex 6, N-methyl-1,1-dioxo-N-[(E)-(2-pyrrolidin-1-ylthiazol-5-yl)methyleneamino]-1,2-benzothiazol-3-amine] came in with an IC50 of 1.07 µM.

For `COc1cc(/C=N/N(C)C2=NS(=O)(=O)c3cc(B4OCC(C)(C)CO4)ccc32)ccc1F` [Ex 59, 6-(5,5-dimethyl-1,3,2-dioxaborinan-2-yl)-N-[(E)-(4-fluoro-3-methoxy-phenyl)methyleneamino]-N-methyl-1,1-dioxo-1,2-benzothiazol-3-amine], the IC50 was 3.55 µM.

In turn, `COc1cc(/C=N/N(CC(C)C)C2=NS(=O)(=O)c3cc(B(O)O)ccc32)ccc1F` [Ex 63, [3-[[(E)-(4-fluoro-3-methoxy-phenyl)methyleneamino]-isobutyl-amino]-1,1-dioxo-1,2-benzothiazol-6-yl]boronic acid] yielded an IC50 of 1.08 µM.

`CN(/N=C/c1ccc2[nH]c(=O)n(C3CC3)c2c1)C1=NS(=O)(=O)c2ccccc21` [Ex 27, 3-cyclopropyl-5-[(E)-[(1,1-dioxo-1,2-benzothiazol-3-yl)-methyl-hydrazono]methyl]-1H-benzimidazol-2-one] showed an IC50 of 2.92 µM.

`COc1cc(/C=N/N(CC(C)C)C2=NS(=O)(=O)c3cc(OCB4OC(=O)CN(C)CC(=O)O4)ccc32)ccc1F` [Ex 106, 2-[[3-[[(E)-(4-fluoro-3-methoxy-phenyl)methyleneamino]-isobutyl-amino]-1,1-dioxo-1,2-benzothiazol-6-yl]oxymethyl]-6-methyl-1,3,6,2-dioxaza-borocane-4,8-dione] came in with an IC50 of 0.94 µM.

In turn, `CSc1cc(/C=N/N(C)C2=NS(=O)(=O)c3ccccc32)ccc1F` [Ex 86, N-[(E)-(4-fluoro-3-methylsulfanyl-phenyl)methyleneamino]-N-methyl-1,1-dioxo-1,2-benzothiazol-3-amine] displayed an IC50 of 1.31 µM.

`CN(/N=C/c1cnc(-c2ccccc2)s1)C1=NS(=O)(=O)c2ccccc21` [Ex 8, N-methyl-1,1-dioxo-N-[(E)-(2-phenylthiazol-5-yl)methyleneamino]-1,2-benzothiazol-3-amine] returned an IC50 of 5.19 µM.

The compound `CN(/N=C/c1ccc(F)c(C(N)=O)c1)C1=NS(=O)(=O)c2ccccc21` [Ex 17, 5-[(E)-[(1,1-dioxo-1,2-benzothiazol-3-yl)-methyl-hydrazono]methyl]-2-fluoro-benzamide] registered a half-inhibitory concentration (IC50) of 2.75 µM.

As to `CC(C)Oc1cc(/C=N/N(C)C2=NS(=O)(=O)c3ccccc32)ccc1F` [Ex 13, N-[(E)-(4-fluoro-3-isopropoxy-phenyl)methyleneamino]-N-methyl-1,1-dioxo-1,2-benzothiazol-3-amine], 3.35 µM corresponded to half-maximal inhibition (IC50).

With `CCn1c(=O)[nH]c2ccc(/C=N/N(CC(C)C)C3=NS(=O)(=O)c4cc(B(O)O)ccc43)cc21` [Ex 84, [3-[[(E)-(3-ethyl-2-oxo-1H-benzimidazol-5-yl)methyleneamino]-isobutyl-amino]-1,1-dioxo-1,2-benzothiazol-6-yl]boronic acid], inhibition was half-maximal at 1.67 µM (IC50).

The assay is the same for the next values; noted with them: HEK293 cells, compounds 0.1 μM to 30 μM, 24 h, luciferase activity.
`COc1cc(/C=N/N(CC(C)C)C2=NS(=O)(=O)c3cc(OCC(N)=O)ccc32)ccc1F` [Ex 104, 2-[[3-[[(E)-(4-fluoro-3-methoxy-phenyl)methyleneamino]-isobutyl. amino]-1,1-dioxo-1,2-benzothiazol-6-yl]oxy]acetamide]: the “Max Act. (%), TEAD-GAL4 Transactivation activity” value was 72%.

On to “3,3-diethyl-5-[(E)-[isobutyl-(5-methoxy-1,1-dioxo-1,2-benzothiazol-3-yl)hydrazono]methyl]indolin-2-one [Ex 101]”, for which the “Max Act. (%), TEAD-GAL4 Transactivation activity” value turned out to be 90%.
